Experimental data: US12221432B2, “Estrogen receptor antagonist” (CHIA TAI TIANQING PHARMACEUTICAL GROUP CO., LTD., priority 2018, dated 2025)
Where a name gives a salt, the structure may show the parent alone.

How the values were obtained:
CYP3A4 = biological target: T1, CYP3A4 (Homo sapiens, UniProt P08684); test: Cytochrome P450 isoenzyme inhibition, CYP3A4; format: in vitro ADME; conditions: human liver microsomes; read-out: CYP enzyme inhibition (IC50) 3A4
T1 construct: tissue Corning Co., Ltd; host or cells: human liver microsomes
T1 sequence (P08684 whole entry): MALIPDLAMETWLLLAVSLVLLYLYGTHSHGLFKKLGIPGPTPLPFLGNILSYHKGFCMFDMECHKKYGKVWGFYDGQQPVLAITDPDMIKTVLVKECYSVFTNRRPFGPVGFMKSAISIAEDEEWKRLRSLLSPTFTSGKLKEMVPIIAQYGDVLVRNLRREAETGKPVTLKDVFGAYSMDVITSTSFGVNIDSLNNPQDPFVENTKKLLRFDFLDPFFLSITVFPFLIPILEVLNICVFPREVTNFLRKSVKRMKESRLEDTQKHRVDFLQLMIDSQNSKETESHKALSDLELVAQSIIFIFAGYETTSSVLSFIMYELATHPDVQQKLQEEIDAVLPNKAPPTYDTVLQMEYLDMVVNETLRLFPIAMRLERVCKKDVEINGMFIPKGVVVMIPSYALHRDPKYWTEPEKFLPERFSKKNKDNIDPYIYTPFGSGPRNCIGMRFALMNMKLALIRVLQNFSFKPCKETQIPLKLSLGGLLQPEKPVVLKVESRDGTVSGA
From the text: Experimental objective: To determine the inhibitory effect of the test compound on the activity of human liver microsomal cytochrome P450 isoenzymes (CYP1A2, CYP2C9, CYP2C19, CYP2D6 and CYP3A4; Corning Co., Ltd.). […]

[1] = Metabolic stability in liver microsome (CD-1 mouse); format: in vitro ADME, CD-1 mice
Experimental: (§1) Objective: To determine the metabolic stability of test compounds in the liver microsomes of humans, CD-1 5 mice and SD rats (Corning Co., Ltd., Miaotong Biological Technology Co., Ltd., Miaotong Biological Technology Co., Ltd.).
(§2) Procedures: Firstly, eight 96-well plates were prepared, and named T0, T5, T10, T20, T30, T60, NCF60 and BLANK; except for BLANK (added with buffer at 10 μL/well), the plates were added with the solution of compounds at 10 μL/well. Prepared microsomes were added to the 7 plates (80 μL/well), except for the T0 10 plate. The NCF60 plate was added with the buffer at 10 μL/well, and incubated in a 37° C. water bath, and timing was started:
(§3) Prepared NADPH cofactor working solution was aliquoted into a 96-well shallow-well plate serving as a loading slot. Each plates was added with the solution to at 10 μL/well by a 96-channel pipette and incubated in a 37° C. water bath to start the reaction:
(§4) At each time point, termination solution (cold acetonitrile containing 100 ng/mL Tolbutamide and 100 ng/mL Labetalol as internal standard) was added at 300 μL/well to stop the reaction, and the mixture was mixed well; the mixture was centrifuged at 4000 rpm for 20 minutes to precipitate the protein; the supernatant was transferred at 100 μL/well to a new 96-well plate containing 300 μL/well of HPLC water with a 96-channel pipette, and the mixture was mixed well. […]

[2] = Metabolic stability in liver microsome (SD rat); format: in vitro ADME, SD rats
Experimental: as §1, §2, §3, §4

[3] = Pharmacokinetics study in rats (cassette); format: in vivo; conditions: female, SD, plasma, rat cassette PK
From the text: Experimental objective: To determine the drug concentration in the plasma of the rats at different times after intravenous and oral administration of the test compounds by LC/MS/MS using female SD rats as the test animals. To investigate the pharmacokinetic performance of the test compounds in rats and to evaluate the pharmacokinetic characteristics.
Test animals: 4 healthy female SD rats were divided into 2 groups according to according to the principle of similar weight, 2 in the IV group and 2 in the PO group. Animal used in this study were purchased from Beijing Vital River Laboratory Animal Technology Co., Ltd.
IV group: Appropriate amounts of compounds were weighed respectively, prepared into 2 mg/mL solutions, then mixed to give a 0.5 mg/mL solution, which was stirred and ultrasonicated until a clear state. The vehicle was 15% HP-b-CD.
PO group: An appropriate amount of the IV group solution was taken and diluted to 0.4 mg/mL with 15% HP-b-CD.
Administration: After fasting overnight, the IV group was administered intravenously, and the dose of the test compound was 1 mg/kg; the PO group was administered intragastrically, and the dose of the test compound was 2 mg/kg.
Procedures: For IV group, 200 μL of blood was collected from the jugular vein of the female SD rats at 0.0833, 0.25, 0.5, 1, 2, 4, 8, and 24 hours post-dose, and placed in a commercial anticoagulant tube with EDTA-K2 added in advance. For PO group, 200 μL of blood was collected from the jugular vein of the female SD rats at 0.25, 0.5, 1, 2, 4, 8, 12 and 24 hours post-dose, and placed in a commercial anticoagulant tube with EDTA-K2 added in advance. The blood samples were centrifuged (3,200 g, 4° C., 10 minutes) to give plasma samples, which was transferred to a pre-cooled centrifuge tube, frozen in dry ice, and stored in an ultra-low temperature freezer at −60° C. or lower until the LC-MS/MS analysis. The animals were given free access to food 4 hours after the administration. LC/MS/MS method was used to determine the content of the test compounds in the plasma of […] after intravenous and oral administration. The linear range of the method is 2.00-2000 nM.

- IC50 (CYP3A4): 9.8 µM
- Stability in liver microsomes [1]: 43
- Stability in liver microsomes [2]: 35
- AUC(0-t) ([3]; iv, i.v. 1 mg/kg): 3.55 µM·h
- clearance ([3]; iv, i.v. 1 mg/kg): 8.14 mL/min/kg
- half-life ([3]; iv, i.v. 1 mg/kg): 6.65 h
- Vd ([3]; iv, i.v. 1 mg/kg, read-out: Vdss): 4.46 L/kg
- AUC(0-t) ([3]; po, p.o. 2 mg/kg): 5.21 µM·h
- Cmax ([3]; po, p.o. 2 mg/kg): 464 nM
- Tmax ([3]; po, p.o. 2 mg/kg): 2 h
- bioavailability ([3]; po, p.o. 2 mg/kg): 73.3%
SMILES: CC/C(=C(/c1ccc(OCCNC/C=C/C(=O)N(C)C)nc1)c1[nH]c2ccccc2c1Cl)c1ccccc1 [Compound 3 monohydrochloride]
